The values below come from patent US6169087A, “Modulators of protein tyrosine phosphatases (PTPases)” (Novo Nordisk A/S, priority 1998, dated 2001).

In the test the target is T1, truncated form of PTP1B (corresponding to the first 321 amino acids) (Homo sapiens, UniProt P18031).
T1 construct: truncated form of PTP1B (corresponding to the first 321 amino acids); made in house; host or cells: E. coli
T1 sequence (P18031 1-321): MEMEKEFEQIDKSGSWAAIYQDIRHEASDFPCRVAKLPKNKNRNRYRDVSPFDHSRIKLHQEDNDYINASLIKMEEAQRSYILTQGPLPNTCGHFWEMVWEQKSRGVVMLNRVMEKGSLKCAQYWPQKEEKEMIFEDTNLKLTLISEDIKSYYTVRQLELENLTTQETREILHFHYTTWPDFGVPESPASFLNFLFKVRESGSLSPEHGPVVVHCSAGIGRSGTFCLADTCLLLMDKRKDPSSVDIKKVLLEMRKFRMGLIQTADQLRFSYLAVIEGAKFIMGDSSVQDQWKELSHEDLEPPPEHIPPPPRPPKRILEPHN
As to the kind of experiment: Inhibition of classical PTP1B, p-nitrophenyl phosphate enzyme assay. It counts as biochemical. The following applies: substrate p-nitrophenyl phosphate 0.16 to 10 mM; 100 mM sodium acetate pH 5.5; 25° C., 60 minutes; absorbance at 405 nm; read-out: PTP1B K1 values. On the procedure:
These compounds were evaluated for biological activity with a truncated form of PTP1B (corresponding to the first 321 amino acids), which was expressed in E. coli and purified to apparent homogeneity using published procedures well-known to those skilled in the art. The enzyme reactions were carried out using standard conditions essentially as described by Burke et al. (Biochemistry 35; 15989-15996 (1996)). The assay conditions were as follows. Appropriate concentrations of the compounds of the invention were added to the reaction mixtures containing different concentrations of the substrate, p-nitrophenyl phosphate (range: 0.16 to 10 mM--final assay concentration). The buffer used was 100 mM sodium acetate pH 5.5, 50 mM sodium chloride, 0.1% (w/v) bovine serum albumin and 5 mM dithiothreitol (total volume […]). The reaction was started by addition of the enzyme and carried out in microliter plates at 25° C. for 60 minutes. The reactions were stopped by addition of NaOH. The enzyme activity was determined by measurement of the absorbance at 405 nm with appropriate corrections for absorbance at 405 nm of the compounds and p-nitrophenyl phosphate. The data were analyzed using nonlinear regression fit to classical Michaelis Menten enzyme kinetic models. Inhibition is expressed as Ki values in μM.

Regarding `CCSc1nn(-c2ccc(OC)cc2)c(=O)c2c(N)scc12` [Example 2, 7-Amino-4-ethylsulfanyl-2-(4-methoxy-phenyl)thieno[3,4-d]pyridazin-1(2H)-one], the Ki was 2 µM.
The figure for `Nc1scc2c1c(=O)oc1ccc3ccccc3c12` [Example 3, 3-Amino4H-naphtho[2,1-b]thieno[3,4-d]pyran-4-one] is 4 µM.
